{"source": "paper PMC10746543", "about": "“Design principles for cyclin K molecular glue degraders” (Nature Chemical Biology, 2023)", "key": {"CDK13": {"molecular_target": "T1, CDK13 (Homo sapiens, UniProt Q14004+Q16531)", "T1 construct": "endogenous in cells; host or cells: MDA-MB-231", "T1 sequence (Q14004 whole entry)": "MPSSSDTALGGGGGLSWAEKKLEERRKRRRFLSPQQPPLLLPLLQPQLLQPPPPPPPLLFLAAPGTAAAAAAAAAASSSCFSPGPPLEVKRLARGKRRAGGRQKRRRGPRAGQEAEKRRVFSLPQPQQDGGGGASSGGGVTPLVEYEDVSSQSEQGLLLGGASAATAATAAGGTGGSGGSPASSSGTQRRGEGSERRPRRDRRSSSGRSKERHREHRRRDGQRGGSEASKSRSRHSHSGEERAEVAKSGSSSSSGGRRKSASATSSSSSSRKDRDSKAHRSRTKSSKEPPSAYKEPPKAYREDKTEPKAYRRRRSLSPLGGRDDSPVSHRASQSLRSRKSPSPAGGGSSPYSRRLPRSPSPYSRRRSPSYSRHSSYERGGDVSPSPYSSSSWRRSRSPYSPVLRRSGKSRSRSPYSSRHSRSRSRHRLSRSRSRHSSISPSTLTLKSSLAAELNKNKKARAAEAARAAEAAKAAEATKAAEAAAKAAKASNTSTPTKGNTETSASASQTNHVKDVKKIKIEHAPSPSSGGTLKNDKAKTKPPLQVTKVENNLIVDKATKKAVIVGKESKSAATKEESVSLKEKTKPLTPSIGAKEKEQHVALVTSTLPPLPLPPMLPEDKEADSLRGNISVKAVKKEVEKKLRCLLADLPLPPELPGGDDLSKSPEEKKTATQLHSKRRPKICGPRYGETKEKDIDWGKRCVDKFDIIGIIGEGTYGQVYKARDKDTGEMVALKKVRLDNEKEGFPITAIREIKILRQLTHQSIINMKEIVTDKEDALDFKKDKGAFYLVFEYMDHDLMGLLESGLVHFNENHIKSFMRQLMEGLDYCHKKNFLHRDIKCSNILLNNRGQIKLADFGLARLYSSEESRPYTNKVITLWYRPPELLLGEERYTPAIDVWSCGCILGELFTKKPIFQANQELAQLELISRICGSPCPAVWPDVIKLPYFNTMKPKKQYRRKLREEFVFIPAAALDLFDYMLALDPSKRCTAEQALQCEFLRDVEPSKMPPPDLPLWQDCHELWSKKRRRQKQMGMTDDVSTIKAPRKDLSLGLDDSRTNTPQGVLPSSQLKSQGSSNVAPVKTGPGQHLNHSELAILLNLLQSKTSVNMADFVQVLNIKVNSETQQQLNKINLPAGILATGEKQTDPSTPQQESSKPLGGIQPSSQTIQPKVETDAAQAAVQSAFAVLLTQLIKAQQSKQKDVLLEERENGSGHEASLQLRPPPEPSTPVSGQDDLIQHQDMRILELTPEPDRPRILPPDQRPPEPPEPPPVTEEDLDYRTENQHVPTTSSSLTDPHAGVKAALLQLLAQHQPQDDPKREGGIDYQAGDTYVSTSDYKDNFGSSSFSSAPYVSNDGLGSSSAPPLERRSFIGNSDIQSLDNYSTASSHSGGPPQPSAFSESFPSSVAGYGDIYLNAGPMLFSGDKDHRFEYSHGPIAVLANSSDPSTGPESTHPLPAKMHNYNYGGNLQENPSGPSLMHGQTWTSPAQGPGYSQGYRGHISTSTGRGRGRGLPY", "T1 sequence (O75909 whole entry partner)": "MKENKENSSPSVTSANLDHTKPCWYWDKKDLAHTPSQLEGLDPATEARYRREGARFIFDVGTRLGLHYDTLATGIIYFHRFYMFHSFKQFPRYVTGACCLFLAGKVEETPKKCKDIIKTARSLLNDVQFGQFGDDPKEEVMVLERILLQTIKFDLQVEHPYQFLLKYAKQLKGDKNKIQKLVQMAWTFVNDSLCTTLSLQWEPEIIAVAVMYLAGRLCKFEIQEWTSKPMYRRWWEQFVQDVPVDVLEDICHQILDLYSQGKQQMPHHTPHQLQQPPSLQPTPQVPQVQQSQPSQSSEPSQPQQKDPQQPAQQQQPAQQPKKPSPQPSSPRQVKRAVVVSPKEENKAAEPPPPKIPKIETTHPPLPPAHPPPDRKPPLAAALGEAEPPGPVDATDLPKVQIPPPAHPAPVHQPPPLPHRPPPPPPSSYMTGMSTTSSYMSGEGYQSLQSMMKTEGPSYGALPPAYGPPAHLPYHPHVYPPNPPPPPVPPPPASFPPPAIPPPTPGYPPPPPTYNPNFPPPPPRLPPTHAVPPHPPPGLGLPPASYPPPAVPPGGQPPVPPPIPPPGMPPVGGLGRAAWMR", "T1 sequence (Q16531 2-1140 limits assumed)": "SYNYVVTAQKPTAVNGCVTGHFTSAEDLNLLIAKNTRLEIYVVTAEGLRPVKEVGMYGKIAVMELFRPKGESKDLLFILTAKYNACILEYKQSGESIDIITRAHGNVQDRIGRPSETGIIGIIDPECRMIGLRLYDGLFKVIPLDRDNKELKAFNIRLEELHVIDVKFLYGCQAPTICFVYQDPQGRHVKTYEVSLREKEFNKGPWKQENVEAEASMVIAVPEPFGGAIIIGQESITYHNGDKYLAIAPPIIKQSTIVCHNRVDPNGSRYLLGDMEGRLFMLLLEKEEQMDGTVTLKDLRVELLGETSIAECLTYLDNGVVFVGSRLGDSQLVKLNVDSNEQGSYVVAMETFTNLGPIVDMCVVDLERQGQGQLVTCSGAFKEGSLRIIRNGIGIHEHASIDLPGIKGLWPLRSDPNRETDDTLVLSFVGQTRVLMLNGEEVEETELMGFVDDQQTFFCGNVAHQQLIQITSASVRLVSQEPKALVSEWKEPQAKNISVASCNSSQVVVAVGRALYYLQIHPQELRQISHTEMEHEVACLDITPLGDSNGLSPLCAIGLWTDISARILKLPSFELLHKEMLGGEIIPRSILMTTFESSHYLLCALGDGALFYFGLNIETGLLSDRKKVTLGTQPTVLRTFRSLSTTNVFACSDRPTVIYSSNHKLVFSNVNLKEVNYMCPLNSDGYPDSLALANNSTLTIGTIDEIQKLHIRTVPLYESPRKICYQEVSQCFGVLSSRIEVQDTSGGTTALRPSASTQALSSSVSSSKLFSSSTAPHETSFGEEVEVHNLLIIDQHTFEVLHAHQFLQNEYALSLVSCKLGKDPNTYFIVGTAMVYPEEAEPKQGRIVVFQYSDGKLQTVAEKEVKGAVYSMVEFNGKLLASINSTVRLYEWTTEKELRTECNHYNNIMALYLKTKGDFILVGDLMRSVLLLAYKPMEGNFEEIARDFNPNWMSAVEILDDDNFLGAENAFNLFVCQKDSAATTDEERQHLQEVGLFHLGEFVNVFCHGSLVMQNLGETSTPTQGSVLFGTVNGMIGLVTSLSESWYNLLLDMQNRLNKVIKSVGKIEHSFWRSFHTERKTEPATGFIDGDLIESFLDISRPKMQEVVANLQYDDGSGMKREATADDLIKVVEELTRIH", "assay": "Label-free quantitative mass spectrometry in MDA-MB-231 cells, CDK13", "format": "cell-based", "summary_of_the_method": "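MDA-MB-231 cells treated 5 h with 1 µM cyclin K degrader or DMSO. Lysates digested with LysC and trypsin, then analysed by label-free diaPASEF LC-MS on a TimsTOF Pro2 with directDIA search and MS1 precursor quantification. Protein abundances scaled and analysed with limma.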"}, "CDK12–cyclin K and DDB1": {"molecular_target": "T2, CDK12–cyclin K and DDB1 (Homo sapiens, UniProt Q16531+Q9NYV4, K965R)", "T2 construct": "His6–CDK12 (a.a. 713–1,052); full-length or beta-propeller B domain deletion (ΔBPB: a.a. 396–705 deleted) constructs of His6–DDB1ΔBPB, StrepII–Avi–DDB1, or His6–Spy–DDB1; made in house; host or cells: Trichoplusia ni High Five insect cells (baculovirus)", "T2 sequence (Q9NYV4 713-1052 K965R)": "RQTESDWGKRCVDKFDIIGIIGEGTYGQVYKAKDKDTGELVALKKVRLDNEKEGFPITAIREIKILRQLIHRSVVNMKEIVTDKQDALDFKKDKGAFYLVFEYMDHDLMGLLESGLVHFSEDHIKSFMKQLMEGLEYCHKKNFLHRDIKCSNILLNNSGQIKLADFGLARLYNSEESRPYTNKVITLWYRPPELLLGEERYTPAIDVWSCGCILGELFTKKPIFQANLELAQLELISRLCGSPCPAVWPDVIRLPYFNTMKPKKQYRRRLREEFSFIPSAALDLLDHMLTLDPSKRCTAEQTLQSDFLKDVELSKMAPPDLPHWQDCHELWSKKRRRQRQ", "T2 sequence (O75909 1-267 partner)": "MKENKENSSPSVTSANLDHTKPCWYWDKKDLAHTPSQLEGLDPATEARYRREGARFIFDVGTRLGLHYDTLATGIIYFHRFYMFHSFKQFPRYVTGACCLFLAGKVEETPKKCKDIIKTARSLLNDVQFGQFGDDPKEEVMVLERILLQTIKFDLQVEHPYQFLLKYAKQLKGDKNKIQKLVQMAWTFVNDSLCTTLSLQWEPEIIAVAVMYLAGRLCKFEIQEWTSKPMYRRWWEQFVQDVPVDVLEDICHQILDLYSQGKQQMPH", "T2 sequence (Q16531 whole entry)": "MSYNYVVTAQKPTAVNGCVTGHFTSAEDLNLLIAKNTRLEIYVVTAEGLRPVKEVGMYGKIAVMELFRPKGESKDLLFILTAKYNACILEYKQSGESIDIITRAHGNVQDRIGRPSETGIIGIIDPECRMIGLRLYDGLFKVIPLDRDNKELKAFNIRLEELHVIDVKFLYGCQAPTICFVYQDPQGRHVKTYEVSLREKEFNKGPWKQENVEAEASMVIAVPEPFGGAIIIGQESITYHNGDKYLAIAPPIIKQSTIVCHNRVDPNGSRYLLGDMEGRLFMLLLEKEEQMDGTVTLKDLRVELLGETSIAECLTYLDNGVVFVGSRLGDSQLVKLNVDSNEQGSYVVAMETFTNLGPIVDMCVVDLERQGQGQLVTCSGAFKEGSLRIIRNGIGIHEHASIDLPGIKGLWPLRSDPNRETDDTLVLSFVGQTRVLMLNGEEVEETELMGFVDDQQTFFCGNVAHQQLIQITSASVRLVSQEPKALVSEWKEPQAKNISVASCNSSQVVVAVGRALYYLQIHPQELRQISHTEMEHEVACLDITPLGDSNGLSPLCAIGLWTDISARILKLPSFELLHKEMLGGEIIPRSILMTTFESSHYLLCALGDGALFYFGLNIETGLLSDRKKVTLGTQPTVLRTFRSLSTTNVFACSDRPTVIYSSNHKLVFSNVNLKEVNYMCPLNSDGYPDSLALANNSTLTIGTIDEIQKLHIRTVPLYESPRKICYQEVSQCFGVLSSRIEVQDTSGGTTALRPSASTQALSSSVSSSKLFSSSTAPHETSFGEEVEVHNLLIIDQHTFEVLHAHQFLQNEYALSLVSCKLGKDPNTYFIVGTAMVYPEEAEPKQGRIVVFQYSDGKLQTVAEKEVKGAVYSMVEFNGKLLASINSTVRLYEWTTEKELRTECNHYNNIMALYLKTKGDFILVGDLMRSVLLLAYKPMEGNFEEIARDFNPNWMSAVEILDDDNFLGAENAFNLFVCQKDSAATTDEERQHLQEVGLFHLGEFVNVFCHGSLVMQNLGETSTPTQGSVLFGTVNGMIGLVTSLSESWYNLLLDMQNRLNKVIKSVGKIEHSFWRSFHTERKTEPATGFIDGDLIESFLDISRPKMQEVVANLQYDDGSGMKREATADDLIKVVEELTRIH", "assay": "TR-FRET ternary complex formation assay (compound titration)", "format": "binding", "summary_of_the_method": "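TR-FRET ratio 520/490 nm; 70 μs delay before read to suppress background.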"}, "CDK12–cyclin K": {"molecular_target": "CDK12–cyclin K (Homo sapiens, UniProt Q9NYV4)", "sequence (Q9NYV4 713-1052)": "as the sequence (Q9NYV4 713-1052 K965R) above, with R253K counted along it", "sequence (O75909 1-267 partner limits assumed)": "as the sequence (O75909 1-267 partner) above", "assay": "Lanthascreen kinase binding assay, CDK12", "conditions": "for Lanthascreen raw signal, sheet CDK12: duplicates", "experimental": "Lanthascreen experiments were performed using commercially available reagents (Thermo Fisher) and according to the manufacturer’s instructions."}}, "note": "“And” between values parts separate entries of the source, which are not always exact repeats. Equal entries are not always repeated. Where two headings read alike, the source gives them in different places.", "data": [{"smiles": "CC(C)c1nn(-c2c(Cl)cccc2Cl)c2nc(Cc3ccc(OCCO)cc3)[nH]c(=O)c12", "note": "[compound 21195]", "values": [{"measurement": "CDK13 peptide count", "setting": "CDK13; label-free quantitative MS, replicate values", "result": "262.248 and 170.145"}, {"measurement": "CDK13 peptide count (DMSO-normalised)", "setting": "CDK13; normalised to DMSO = 1, replicate values", "result": "0.3901 and 0.2615"}, {"measurement": "TR-FRET signal", "setting": "CDK12–cyclin K and DDB1; compound concentration 0.468 nM", "result": "0.2628 and 0.2699 and 0.216 and 0.239 and 0.2342 and 0.2245"}, {"measurement": "TR-FRET signal", "setting": "CDK12–cyclin K and DDB1; compound concentration 2.16 nM", "result": "0.3464 and 0.3831 and 0.355 and 0.3843 and 0.3684 and 0.3664"}, {"measurement": "TR-FRET signal", "setting": "CDK12–cyclin K and DDB1; compound concentration 3.6 nM", "result": "0.5968 and 0.6945 and 0.6556 and 0.7072 and 0.6869 and 0.6829"}, {"measurement": "TR-FRET signal", "setting": "CDK12–cyclin K and DDB1; compound concentration 7.92001 nM", "result": "1.121 and 1.282 and 1.315 and 1.383 and 1.34 and 1.348"}, {"measurement": "TR-FRET signal", "setting": "CDK12–cyclin K and DDB1; compound concentration 15.84 nM", "result": "1.693 and 2.27 and 2.427 and 2.5504 and 2.497"}, {"measurement": "TR-FRET signal", "setting": "CDK12–cyclin K and DDB1; compound concentration 30.96 nM", "result": "2.9489 and 3.238 and 3.271 and 3.348 and 3.319 and 3.3062"}, {"measurement": "TR-FRET signal", "setting": "CDK12–cyclin K and DDB1; compound concentration 62.6401 nM", "result": "3.288 and 3.494 and 3.577 and 3.452 and 3.519 and 3.526"}, {"measurement": "TR-FRET signal", "setting": "CDK12–cyclin K and DDB1; compound concentration 125.28 nM", "result": "3.346 and 3.624 and 3.589 and 3.472 and 3.591 and 3.561"}, {"measurement": "TR-FRET signal", "setting": "CDK12–cyclin K and DDB1; compound concentration 244.8 nM", "result": "3.392 and 3.7057 and 3.68 and 3.58 and 3.638 and 3.662"}, {"measurement": "TR-FRET signal", "setting": "CDK12–cyclin K and DDB1; compound concentration 993.601 nM", "result": "3.425 and 3.678 and 3.687 and 3.61 and 3.695 and 3.669"}, {"measurement": "TR-FRET signal", "setting": "CDK12–cyclin K and DDB1; compound concentration 2001.6 nM", "result": "3.544 and 3.666 and 3.468 and 3.558 and 3.691 and 3.74"}, {"measurement": "EC50", "setting": "CDK12–cyclin K and DDB1; in vitro complex formation, 50 nM CDK12–cyclin K, 100 nM DDB1, text and figures, read-out: TR-FRET EC50", "result": "12 ± 0.4", "unit": "nM"}, {"measurement": "EC50", "setting": "CDK12–cyclin K and DDB1; sheet MOESM7, read-out: log TR-FRET EC50 (converted)", "result": 12, "unit": "nM"}, {"measurement": "EC50", "setting": "CDK12–cyclin K and DDB1; source data sheet correlations, read-out: TR-FRET EC50", "result": 12, "unit": "nM"}, {"measurement": "IC50", "setting": "CDK12–cyclin K; Supplementary Table 2, read-out: Lanthascreen IC50 [nM] CDK12", "result": 31, "unit": "nM"}, {"measurement": "Lanthascreen raw signal, sheet CDK12", "setting": "CDK12–cyclin K; compound 0.038147 nM, series r49", "result": "0.008046 and 0.008167"}, {"measurement": "Lanthascreen raw signal, sheet CDK12", "setting": "CDK12–cyclin K; compound 0.152588 nM, series r49", "result": "0.01001 and 0.009391"}, {"measurement": "Lanthascreen raw signal, sheet CDK12", "setting": "CDK12–cyclin K; compound 0.610352 nM, series r49", "result": "0.008764 and 0.009174"}, {"measurement": "Lanthascreen raw signal, sheet CDK12", "setting": "CDK12–cyclin K; compound 0.76 nM, series r25", "result": "0.01117 and 0.01013"}, {"measurement": "Lanthascreen raw signal, sheet CDK12", "setting": "CDK12–cyclin K; compound 1.02544 nM, series r1", "result": "0.009771 and 0.007848"}, {"measurement": "Lanthascreen raw signal, sheet CDK12", "setting": "CDK12–cyclin K; compound 3.15521 nM, series r1", "result": "0.009162 and 0.009522"}, {"measurement": "Lanthascreen raw signal, sheet CDK12", "setting": "CDK12–cyclin K; compound 4.57247 nM, series r25", "result": "0.01016 and 0.01236"}, {"measurement": "Lanthascreen raw signal, sheet CDK12", "setting": "CDK12–cyclin K; compound 9.46563 nM, series r1", "result": "0.007787 and 0.0086"}, {"measurement": "Lanthascreen raw signal, sheet CDK12", "setting": "CDK12–cyclin K; compound 9.76563 nM, series r49", "result": "0.007441 and 0.00728"}, {"measurement": "Lanthascreen raw signal, sheet CDK12", "setting": "CDK12–cyclin K; compound 13.7174 nM, series r25", "result": "0.01024 and 0.009436"}, {"measurement": "Lanthascreen raw signal, sheet CDK12", "setting": "CDK12–cyclin K; compound 31.5521 nM, series r1", "result": "0.006914 and 0.007088"}, {"measurement": "Lanthascreen raw signal, sheet CDK12", "setting": "CDK12–cyclin K; compound 39.0625 nM, series r49", "result": "0.007229 and 0.006516"}, {"measurement": "Lanthascreen raw signal, sheet CDK12", "setting": "CDK12–cyclin K; compound 41.1523 nM, series r25", "result": "0.009216 and 0.008226"}, {"measurement": "Lanthascreen raw signal, sheet CDK12", "setting": "CDK12–cyclin K; compound 99.3891 nM, series r1", "result": "0.004636 and 0.007689"}, {"measurement": "Lanthascreen raw signal, sheet CDK12", "setting": "CDK12–cyclin K; compound 123.457 nM, series r25", "result": "0.007812 and 0.006741"}, {"measurement": "Lanthascreen raw signal, sheet CDK12", "setting": "CDK12–cyclin K; compound 156.25 nM, series r49", "result": "0.006172 and 0.006187"}, {"measurement": "Lanthascreen raw signal, sheet CDK12", "setting": "CDK12–cyclin K; compound 315.521 nM, series r1", "result": "0.005556 and 0.004599"}, {"measurement": "Lanthascreen raw signal, sheet CDK12", "setting": "CDK12–cyclin K; compound 370.37 nM, series r25", "result": "0.006605 and 0.00608"}, {"measurement": "Lanthascreen raw signal, sheet CDK12", "setting": "CDK12–cyclin K; compound 625 nM, series r49", "result": "0.006151 and 0.006004"}, {"measurement": "Lanthascreen raw signal, sheet CDK12", "setting": "CDK12–cyclin K; compound 2500 nM, series r49", "result": "0.005584 and 0.005705"}, {"measurement": "Lanthascreen raw signal, sheet CDK12", "setting": "CDK12–cyclin K; compound 3155.21 nM, series r1", "result": "0.006552 and 0.005285"}, {"measurement": "Lanthascreen raw signal, sheet CDK12", "setting": "CDK12–cyclin K; compound 3333.33 nM, series r25", "result": "0.006042 and 0.006492"}, {"measurement": "Lanthascreen raw signal, sheet CDK12", "setting": "CDK12–cyclin K; compound 10000 nM, series r25", "result": "0.006222 and 0.005571"}, {"measurement": "Lanthascreen raw signal, sheet CDK12", "setting": "CDK12–cyclin K; compound 10000 nM, series r49", "result": "0.005751 and 0.005801"}, {"measurement": "Lanthascreen raw signal, sheet CDK12", "setting": "CDK12–cyclin K; compound 10002 nM, series r1", "result": "0.00595 and 0.006099"}]}]}
